The values below come from PubChem BioAssay AID1626 (SRMLSC, 2009).

The assay concerns M. tuberculosis H37Rv growth inhibition. The experiment in a line: M. tuberculosis H37Rv growth inhibitors, H37Rv strain (AID 1626). Particulars: for IC90: measured here: IC90 against H37Rv; for CC50: measured here: Vero cell cytotoxicity.

Regarding `O=C(Nc1ccc(-c2nc3ccccc3c(=O)o2)cc1)c1ccco1`, the half-inhibitory concentration (IC50) – broadly, the concentration that inhibits the measured activity by half – was < 0.195 µM and the IC90 (in general, the concentration needed for an effect of 90%) is > 100 µM.

On to `CNc1cc(C(F)(F)F)nc(-c2ccccn2)n1`, for which the IC50 is 40.7 µM and the IC90 is > 100 µM.

Regarding `CCn1c(NC(=O)c2cccs2)nc2ccccc21`, the IC50 is 5.32 µM and the IC90 was > 100 µM.

Regarding `CC(=O)Oc1ccc2oc3c(c2c1)C(=O)CCC3`, the IC50 was 12 µM and the IC90 is > 100 µM.

Turning to `O=C(/C=C/c1ccccc1)c1c(O)n(CCc2ccccc2)c(=O)[nH]c1=O`, the IC50 was 9.75 µM; the IC90 stood at 11.6 µM; the CC50 – broadly, the concentration giving 50% cytotoxicity – amounted to 37.1 µM.

For `Cc1c(Cc2ccccc2)c(=O)n2c([nH]c3ccccc32)c1C#N`, the IC50 is 3.04 µM, the IC90 is > 100 µM and the CC50 turned out to be 13 µM.

`O=C1N=C(N2CCN(c3cccc4ccccc34)CC2)S/C1=C/c1cccs1`: the cytotoxic concentration (CC50) is > 40 µM.

`O=C(OCC#CCSc1nnc(-c2ccccc2)o1)c1ccco1`: the IC50 is 1.16 µM and the IC90 was found to be 3.94 µM.

`COc1ccc(C2CC(=O)N3CN(c4ccc(C)c(Cl)c4)CSC3=C2C#N)cc1OC` (stereo not drawn): the IC90 was > 100 µM.

In the case of `COc1ccc(C2(CNC(=O)c3cc([N+](=O)[O-])cc([N+](=O)[O-])c3)CCCC2)cc1OC`, the half-maximal inhibitory concentration (IC50) is < 0.195 µM and the IC90 is 0.686 µM.

Turning to `O=[N+]([O-])c1cc(S(=O)(=O)C(F)(F)F)ccc1Sc1nc2ccccc2s1`, the IC50 was 0.699 µM, the IC90 worked out at 0.781 µM and the CC50 was determined as 12.6 µM.

For `CSc1nc2ccc(NC(=O)C3CC(=O)N(Cc4ccccc4)C3)cc2s1` (stereo not drawn), the IC50 was 5.17 µM and the IC90 amounted to 7.75 µM.

Take `CCc1nc2sc3ccccc3c(=O)c2c(=O)n1Cc1ccc(OC)cc1`: the IC50 is 6.25 µM, the IC90 was found to be 8.28 µM and the CC50 is > 40 µM.

Turning to `CCOC(=O)c1ccc(NC(=O)CCOc2ccc(OC)cc2)cc1`, the IC50 is 9.49 µM and the IC90 is > 100 µM.

Take `CCOC(=O)c1ccc(NC(=O)COc2ccccc2CNCCc2ccccc2)cc1`: the IC50 was 4.77 µM, the IC90 amounted to 6.88 µM and the CC50 is 25.2 µM.

Consider `O=C(N[C@H](CO)[C@H](O)c1ccc([N+](=O)[O-])cc1)C(Cl)Cl`, for which the IC50 is 4.82 µM, the IC90 was found to be 7.7 µM and the CC50 was > 40 µM.

Regarding `O=C(Nc1nnc(-c2ccc3c(c2)OCCO3)o1)C1CCCCC1`, the IC90 is > 100 µM.

As for `COc1cc(OC)c2c(-c3ccccc3)cc(=O)oc2c1C(CCN1CCCC(C)C1)c1ccc2c(c1)OCO2` (stereo not drawn), the IC50 was 5.64 µM, the IC90 came out at 10.4 µM and the CC50 was 24.3 µM.

Consider `O=S(=O)(c1ccc(Cl)c(Cl)c1)c1snnc1-c1ccccc1`, for which the IC50 was 2.71 µM, the IC90 stood at 5.42 µM and the CC50 was 3.84 µM.

As for `Cc1ccc(CN2CCSc3ccc(C(=O)NC4CCN(Cc5ccccc5)CC4)cc32)cc1`, the CC50 came to 18.4 µM.

As to `CCOC(=O)c1ccc(NC(=O)CCOc2ccc(C)cc2)cc1`, the IC50 is 20.9 µM and the IC90 is > 100 µM.

Take `Cc1ccc(OCCC(=O)Nc2ccc(C)c(F)c2)cc1`: the IC90 is > 100 µM.

In the case of `COc1ccc(OC(=O)CCc2c[nH]c3ccccc23)cc1`, the IC50 is 18.2 µM and the IC90 was > 100 µM.

As for `O=C(NCCCn1ccnc1)c1nn2c(C(F)(F)F)cc(-c3ccc(Br)cc3)nc2c1Cl`, the IC50 was 6.53 µM, the IC90 came to 9.35 µM and the CC50 was > 40 µM.

Turning to `Nc1nc(COc2ccc(Cl)cc2)cs1`, the IC90 was > 100 µM.

`Cc1ccc(NC(=O)N2CCC(c3nc4c(nnn4Cc4cccc(Cl)c4)c(=O)[nH]3)CC2)cc1`: the IC50 was 5.13 µM and the IC90 was determined as 6.62 µM.

Turning to `COc1ccc(N=Cc2cc(Cl)ccc2O)cc1Cl`, the IC50 was 7.49 µM and the IC90 is > 100 µM.

As to `O=C(Cn1cnc2c(nnn2-c2ccccc2)c1=O)N1CCC(Cc2ccccc2)CC1`, the IC50 was 5.79 µM, the IC90 worked out at 6.58 µM and the CC50 is > 40 µM.

`COc1c(N2CCNC(C)C2)c(F)cc2c(=O)c(C(=O)O)cn(C3CC3)c12` (stereo not drawn): the IC50 was < 0.195 µM and the IC90 was < 0.195 µM.

In the case of `COc1ccccc1N1CCN(c2nc(C)nc3c2oc2ccccc23)CC1`, the IC50 is 1.74 µM, the 90% effect concentration (IC90) amounted to 3.89 µM and the CC50 worked out at 5.01 µM.

For the molecule `CCOC(=O)CSc1nnc(-c2ccc(NS(=O)(=O)c3ccc(C)cc3)cc2)o1`, the half-inhibitory concentration (IC50) is 2.27 µM and the IC90 was 5.26 µM.

For the molecule `COc1ccc(COCC(O)CN2CCC(CN3C(=O)c4cccc5cccc(c45)C3=O)CC2)cc1OC` (stereo not drawn), the half-inhibitory concentration (IC50) was 12.9 µM, the IC90 was > 100 µM and the half-maximal cytotoxic concentration (CC50) was > 40 µM.

Regarding `N#C/C(=C/c1ccc(-c2ccc(Br)cc2)o1)C(=O)NC1CCCCC1`, the 90% effect concentration (IC90) is > 100 µM and the CC50 was > 40 µM.

For the molecule `Cc1ccn2c(Nc3ccccc3C)c(-c3ccccn3)nc2c1`, the IC50 is 1.42 µM, the IC90 is 1.59 µM and the 50% cytotoxic concentration (CC50) came out at 3.12 µM.

On to `CNC1=C(N(C(C)=O)c2ccc(Br)cc2)C(=O)c2ccccc2C1=O`, for which the IC50 was 0.654 µM, the IC90 is 2.54 µM and the CC50 stood at 10 µM.

`COc1ccc(-c2oc3ncn(Cc4ccco4)c(=N)c3c2-c2ccc(OC)cc2)cc1`: the IC50 was 8.35 µM, the IC90 came out at 13.9 µM and the CC50 came to 23.7 µM.

As for `COc1cnc(-c2ccccn2)nc1Sc1ccccc1`, the IC50 was 2.66 µM, the IC90 was 4.96 µM and the CC50 turned out to be 8.62 µM.

Consider `COc1ccc(N=C2C(=O)N3CCCc4cccc2c43)cc1`, for which the IC90 was > 100 µM.

`CCN(CC(=O)NC(C)(C)C)C(=O)COc1c(Cl)cc(Cl)c2ccc(C)nc12`: the IC50 is 3.94 µM, the IC90 was determined as 13.9 µM and the CC50 was 36.8 µM.

For `c1cc2c(cc1C1CCCCC1)c1c3n2CCCNC3CCC1` (stereo not drawn), the IC50 is 6.06 µM, the IC90 came out at 6.63 µM and the CC50 worked out at 6.99 µM.

On to `CC(C)(C)C(=O)/C=C/Nc1ccccc1O`, for which the IC50 is 2.55 µM, the IC90 worked out at 3.93 µM and the CC50 was > 40 µM.

Consider `CCOC(=O)c1ccc(NC(=O)CSC2=NC(=O)C(CC)C(=O)N2)cc1` (stereo not drawn), for which the IC50 is 24.3 µM and the IC90 is > 100 µM.

As to `CCCCn1c(O)c(C(CC)=Nc2ccc(OCC)cc2)c(=O)[nH]c1=O`, the IC50 is 7.89 µM, the IC90 was > 100 µM and the CC50 is > 40 µM.

Regarding `CCOC(=O)N1C/C(=C\c2ccccc2)C(=O)/C(=C/c2ccccc2)C1`, the 50% inhibitory concentration (IC50) is 2.11 µM, the IC90 was > 100 µM and the CC50 was found to be 19.3 µM.

Regarding `COc1ccc(-c2nnc(NC(=O)c3cc(Cl)ccc3Cl)o2)cc1`, the IC50 was 1.2 µM, the IC90 was > 100 µM and the CC50 turned out to be 38.8 µM.

Regarding `CCN(CC)c1ccc(CNc2nc3ccccc3n2CCN2CCCCC2)cc1`, the IC50 was 36.7 µM, the IC90 was found to be 43.8 µM and the CC50 was > 40 µM.

On to `O=c1nc(/C=C/c2ccc(-c3ccc(F)cc3)o2)cc(C(F)(F)F)[nH]1`, for which the IC50 is 10.4 µM, the IC90 is > 100 µM and the CC50 is > 40 µM.

With `Nc1nc(N)c2cc(Sc3ccc4ccccc4c3)ccc2n1`, the IC50 is 1.61 µM, the IC90 is 3.16 µM and the CC50 turned out to be 1.01 µM.

Turning to `O=C(CSc1ncnc2c1oc1ccccc12)OCc1ccccc1`, the IC50 is 7.79 µM and the IC90 was determined as 26.8 µM.

Turning to `O=c1c(C=Nc2ccc(Oc3ccccc3)cc2)c[nH]n1-c1cccc(Cl)n1`, the IC90 was > 100 µM and the CC50 was > 40 µM.

Turning to `Nc1ccc(-n2ccnc2)cc1`, the IC50 is 41 µM and the IC90 was > 100 µM.

With `COc1ccc2c(c1)sc(=N)n2C`, the IC50 was 8.91 µM, the IC90 amounted to 11.7 µM and the CC50 was > 40 µM.

In the case of `CCOc1ccc(-n2cc(-c3ccccc3)c3c(SC(C)C(=O)OC)ncnc32)cc1` (stereo not drawn), the IC50 was 6.4 µM and the IC90 is > 100 µM.

Consider `Cc1ccc(-c2nc3c(cnn3-c3ccccc3)c(=O)o2)cc1`, for which the IC50 is 6.21 µM and the IC90 was found to be 13.4 µM.

In the case of `COc1ccc(OC(=O)c2cnn(-c3ccccc3)c2C)cc1`, the IC50 is 71.2 µM and the IC90 is > 100 µM.

`CSc1ccc(C(=O)C2CCCN(Cc3cc4ccccc4[nH]3)C2)cc1` (stereo not drawn): the IC50 is 2.43 µM, the IC90 worked out at 2.98 µM and the CC50 was > 40 µM.

With `Cc1ccc(NCc2nnc(SCC(=O)OC3CCCCC3)o2)c(C)c1`, the IC50 was 0.332 µM and the IC90 is 1.59 µM.

For `CCCCCCOC(=O)c1ccc(NC(=O)c2cc(OC)c(OC)c(OC)c2Br)cc1`, the IC50 is 5.27 µM, the IC90 came to 8.11 µM and the CC50 is > 40 µM.

Take `O=C(Nc1nnc(-c2cccs2)o1)c1cccc(C(F)(F)F)c1`: the IC50 was < 0.391 µM, the IC90 was 11.9 µM and the CC50 was found to be 20.6 µM.

On to `CC(C)N1C(=O)NC(=O)C2(Cc3cc([N+](=O)[O-])ccc3N(C)C2c2ccccc2)C1=O` (stereo not drawn), for which the IC50 is 17.8 µM, the IC90 was determined as 52.1 µM and the CC50 is > 40 µM.

As for `COc1cnc(-c2ccccn2)nc1Oc1c(C)cccc1C`, the IC50 was 5.19 µM, the IC90 was found to be 14.7 µM and the CC50 was found to be 19.8 µM.

With `O=C(Nc1ncc(Cc2ccccc2)s1)C1=NCCN1`, the IC50 is 11.6 µM, the IC90 is > 100 µM and the CC50 was > 40 µM.

Take `O=C(CCC(=O)Nc1ccc(Oc2ccccc2)cc1)NCCO`: the IC90 is > 100 µM.

In the case of `CCc1ccccc1NC(=O)c1ccc([N+](=O)[O-])s1`, the IC90 was > 100 µM and the CC50 was > 40 µM.

Take `CCOC(=O)N1CCC(N2CCCC(C(=O)c3ccc4cc(OC)ccc4c3)C2)CC1` (stereo not drawn): the IC50 was 8.9 µM, the IC90 stood at 25.1 µM and the CC50 is > 40 µM.

As for `CCOc1ccc2ncc(S(=O)(=O)c3ccc(C)cc3)c(N3CCC4(CC3)OCCO4)c2c1`, the IC50 is 28.2 µM, the IC90 is > 100 µM and the CC50 was > 40 µM.
